Earlier results as cited in patent US20040115233A1, “Composition for improving skin environment and clothes thereof” (priority 2001, published 2004).

Tests used:
[1] = test system: patients with atopic diseases
[2] = test system: microorganisms; conditions: among components of tea tree oil

Structure (SMILES) | alleviating itching ([1]; patients with mild to medium atopic diseases (127 children and 240 adults)) | serious cases in which the disease was improved ([1]; serious cases) | antibacterial action [2]
CCCCCC=CCC=CCC=CCCCCC(=O)O [γ-linolenic acid, 6,9,12-octadecatrienic acid] | effective for alleviating itching | 116 of 179 | –
CC1=CCC(C(C)(C)O)CC1 (stereo not drawn) [α-terpineol] | – | – | some antibacterial actions
CC1=CC=C(C(C)C)CC1 [α-terpinene] | – | – | some antibacterial actions
CC1=CCC(C(C)C)=CC1 [γ-terpinene] | – | – | some antibacterial actions
Cc1ccc(C(C)C)cc1 [paracimene] | – | – | some antibacterial actions
